In PubChem BioAssay AID1963858 (Molecular Pharmacology Branch, DTP, NCI, 2024):

Tested on: HOP-62 multicell spheroids with HUVEC/MSC, viability
Experiment: Anticancer human tumor HOP-62 cell line growth inhibition [KRAS2];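 note: viability read after a week of compound exposure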;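 for viability, T/C: 100% = DMSO vehicle-treated spheroids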
Settings: for IC50: curve of first compound; for viability, T/C: stronger effect = lower value
Summary of the method: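 Combination screen of spheroid viability in tumor-cell co-cultures with endothelial (HUVEC) and mesenchymal stem cell stroma. Each agent was tested in half-log dilutions, topping at clinical Cmax or at 10 microM without a known Cmax.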

[1] = second compound 0.0316 µM, first compound 0.0316 µM
[2] = second compound 0.0316 µM, first compound 0.1 µM
[3] = second compound 0.0316 µM, first compound 0.316 µM
[4] = second compound 0.0316 µM, first compound 1 µM
[5] = second compound 0.0316 µM, first compound 3.16 µM
[6] = second compound 0.0316 µM, first compound 10 µM
[7] = second compound 0.1 µM, first compound 0.0316 µM
[8] = second compound 0.1 µM, first compound 0.1 µM
[9] = second compound 0.1 µM, first compound 0.316 µM
[10] = second compound 0.1 µM, first compound 1 µM
[11] = second compound 0.1 µM, first compound 3.16 µM
[12] = second compound 0.1 µM, first compound 10 µM
[13] = second compound 0.316 µM, first compound 0.0316 µM
[14] = second compound 0.316 µM, first compound 0.1 µM
[15] = second compound 0.316 µM, first compound 0.316 µM
[16] = second compound 0.316 µM, first compound 1 µM
[17] = second compound 0.316 µM, first compound 3.16 µM
[18] = second compound 0.316 µM, first compound 10 µM
[19] = second compound 1 µM, first compound 0.0316 µM
[20] = second compound 1 µM, first compound 0.1 µM
[21] = second compound 1 µM, first compound 0.316 µM
[22] = second compound 1 µM, first compound 1 µM
[23] = second compound 1 µM, first compound 3.16 µM
[24] = second compound 1 µM, first compound 10 µM
[25] = second compound 3.16 µM, first compound 0.0316 µM
[26] = second compound 3.16 µM, first compound 0.1 µM
[27] = second compound 3.16 µM, first compound 0.316 µM
[28] = second compound 3.16 µM, first compound 1 µM
[29] = second compound 3.16 µM, first compound 3.16 µM
[30] = second compound 3.16 µM, first compound 10 µM

Compound	IC50 (second compound 0.0316 µM) [nM]	IC50 (second compound 0.1 µM) [nM]	IC50 (second compound 0.316 µM) [nM]	IC50 (second compound 1 µM) [nM]	IC50 (second compound 3.16 µM) [nM]	viability, T/C [1] [%]	viability, T/C [2] [%]	viability, T/C [3] [%]	viability, T/C [4] [%]	viability, T/C [5] [%]	viability, T/C [6] [%]	viability, T/C [7] [%]	viability, T/C [8] [%]	viability, T/C [9] [%]	viability, T/C [10] [%]	viability, T/C [11] [%]	viability, T/C [12] [%]	viability, T/C [13] [%]	viability, T/C [14] [%]	viability, T/C [15] [%]	further results
COc1cc(Nc2ncc3c(n2)-c2ccc(Cl)cc2C(c2c(F)cccc2OC)=NC3)ccc1C(=O)O + C=CC(=O)N1CCN(c2nc(OCC3CCCN3C)nc3c2CCN(c2cccc4cccc(C)c24)C3)CC1CC#N	< 31.6	< 31.6	< 31.6	< 31.6	< 31.6	42.7	35.9	32.6	27.1	19.7	14.6	35.7	28.9	25.1	22.3	17.4	11.7	24.4	19.5	17	viability, T/C [16]: 14.3%; viability, T/C [17]: 15%; viability, T/C [18]: 11.3%; viability, T/C [19]: 20.6%; viability, T/C [20]: 15.5%; viability, T/C [21]: 16.6%; viability, T/C [22]: 16.3%; viability, T/C [23]: 13.9%; viability, T/C [24]: 9.29%; viability, T/C [25]: 10.8%; viability, T/C [26]: 1.27%; viability, T/C [27]: 4.55%; viability, T/C [28]: 7.12%; viability, T/C [29]: 1.43%; viability, T/C [30]: 0.67%
COc1cc2nccc(Oc3ccc(NC(=O)C4(C(=O)Nc5ccc(F)cc5)CC4)cc3)c2cc1OC + C=CC(=O)N1CCN(c2nc(OCC3CCCN3C)nc3c2CCN(c2cccc4cccc(C)c24)C3)CC1CC#N	1910	1060	31.6	< 31.6	< 31.6	64.8	68.5	64	77.8	35.4	8.75	50.5	51.4	49.5	53.4	29	12	42	38.5	47.9	viability, T/C [16]: 53.8%; viability, T/C [17]: 24.9%; viability, T/C [18]: 8.51%; viability, T/C [19]: 27.4%; viability, T/C [20]: 31.1%; viability, T/C [21]: 25.3%; viability, T/C [22]: 30.6%; viability, T/C [23]: 19.9%; viability, T/C [24]: 0.15%; viability, T/C [25]: 0.14%; viability, T/C [26]: 0.75%; viability, T/C [27]: 0.15%; viability, T/C [28]: 0.37%; viability, T/C [29]: 0.13%; viability, T/C [30]: 0.23%
O=C(c1cc(Cc2n[nH]c(=O)c3ccccc23)ccc1F)N1CCN(C(=O)C2CC2)CC1 + C=CC(=O)N1CCN(c2nc(OCC3CCCN3C)nc3c2CCN(c2cccc4cccc(C)c24)C3)CC1CC#N	693	< 31.6	< 31.6	< 31.6	< 31.6	76.6	66.2	102	35.3	34.3	27.8	45	40.5	33.8	31.4	29	23	38.1	37.8	35.2	viability, T/C [16]: 26.4%; viability, T/C [17]: 20.9%; viability, T/C [18]: 18.6%; viability, T/C [19]: 26.4%; viability, T/C [20]: 22.7%; viability, T/C [21]: 39.3%; viability, T/C [22]: 23.1%; viability, T/C [23]: 21.7%; viability, T/C [24]: 21.4%; viability, T/C [25]: 11.3%; viability, T/C [26]: 1.1%; viability, T/C [27]: 36.4%; viability, T/C [28]: 6.37%; viability, T/C [29]: 8.8%; viability, T/C [30]: 1.75%
